Measurements published in ChEMBL document CHEMBL1201862, “PubChem BioAssay data set” (2004).
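Grown in 96-well plates, cells were treated for 48 hours with each compound at five concentrations. Insufficient inhibition: endpoint recorded as highest concentration tested. GI50: concentration for 50% inhibition of growth.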 The source made the active and inactive calls. No stated cut-off is given here; in the data, active = GI50 up to about 1.1 µM and inactive = higher.

Columns and labels:
Experiment in all cases: NCI anticancer screen, dose series, 48 h
A549 = test system: A549
ACHN = test system: ACHN
EKVX = test system: EKVX
HCT-15 = test system: HCT-15
HT-29 = test system: HT-29
MOLT-4 = test system: MOLT-4
Malme-3M = test system: Malme-3M
NCI-H226 = test system: NCI-H226
RPMI-8226 = test system: RPMI-8226
SF-268 = test system: SF-268
SF-295 = test system: SF-295
SK-MEL-28 = test system: SK-MEL-28
SK-OV-3 = test system: SK-OV-3
SNB-19 = test system: SNB-19
SNB-75 = test system: SNB-75
UACC-257 = test system: UACC-257
KM12 = test system: KM12
NCI-H522 = test system: NCI-H522

Measured: GI50

Nc1nc(O)c2c(ncn2CCO)n1
> 100 µM: HCT-15
inactive: A549 > 100 µM | ACHN > 100 µM | EKVX > 100 µM | HT-29 > 100 µM | MOLT-4 > 100 µM | Malme-3M > 100 µM | NCI-H226 > 100 µM | RPMI-8226 > 100 µM | SF-268 > 100 µM | SF-295 > 100 µM | SK-MEL-28 > 100 µM | SK-OV-3 > 100 µM | SNB-19 > 100 µM | SNB-75 > 100 µM | UACC-257 > 100 µM

NC1=NS(=O)(=O)Nc2nc(-c3ccccc3)c(-c3ccccc3)nc21
inactive: A549 > 100 µM | ACHN > 100 µM | EKVX > 100 µM | HT-29 > 100 µM | KM12 > 100 µM | MOLT-4 > 100 µM | Malme-3M > 100 µM | NCI-H226 > 100 µM | NCI-H522 > 100 µM | RPMI-8226 > 100 µM | SF-268 > 100 µM | SF-295 > 100 µM | SK-MEL-28 > 100 µM | SK-OV-3 > 100 µM | SNB-19 > 100 µM | SNB-75 > 100 µM | UACC-257 > 100 µM
> 100 µM: HCT-15

Cc1cc(NCCCCCCCCNc2cc(C)nc3cc(N)ccc23)c2ccc(N)cc2n1
inactive: A549 18.3 µM | ACHN 37.7 µM | EKVX 22.2 µM | HT-29 21.8 µM | KM12 12.5 µM | MOLT-4 > 100 µM | NCI-H226 24.4 µM | NCI-H522 3.78 µM | RPMI-8226 6.68 µM | SF-268 26.2 µM | SF-295 18.2 µM | SK-MEL-28 19.9 µM | SK-OV-3 38.5 µM | SNB-19 14.1 µM | SNB-75 16.4 µM | UACC-257 12.7 µM
41.5 µM: HCT-15

Fc1ccc(C2SCc3nc4ccccc4n32)c(F)c1 (centres undefined)
inactive: A549 83.8 µM | ACHN 82.4 µM | EKVX > 100 µM | HT-29 81.1 µM | KM12 46.3 µM | MOLT-4 30.5 µM | Malme-3M 80.4 µM | NCI-H226 > 100 µM | NCI-H522 30.1 µM | RPMI-8226 37.9 µM | SF-268 > 100 µM | SF-295 39.4 µM | SK-OV-3 > 100 µM | SNB-19 > 100 µM | SNB-75 > 100 µM | UACC-257 34.4 µM
49.4 µM: HCT-15

Cc1c(/C=N/NS(=O)(=O)c2ccccc2)no[n+]1[O-]
inactive: A549 > 100 µM | EKVX > 100 µM | HT-29 > 100 µM | KM12 > 100 µM | MOLT-4 > 100 µM | Malme-3M > 100 µM | NCI-H522 > 100 µM | RPMI-8226 > 100 µM | SF-268 > 100 µM | SF-295 > 100 µM | SK-MEL-28 > 100 µM | SK-OV-3 > 100 µM | SNB-19 37.9 µM
> 100 µM: HCT-15

Cn1c(O)c(C(=O)NC2CCCCC2)c(=O)n(C)c1=S
5.02 µM: HCT-15
inactive: A549 3.3 µM | ACHN 3.57 µM | KM12 9.66 µM | MOLT-4 3.56 µM | NCI-H226 8.57 µM | NCI-H522 3.58 µM | RPMI-8226 4.32 µM | SF-268 4.56 µM | SF-295 3.23 µM | SK-MEL-28 4.61 µM | SK-OV-3 5.64 µM | SNB-19 7.11 µM | UACC-257 6.27 µM

CCCCCCCCCC1C(C)c2c([nH]c3ccccc23)C2C(=O)N(c3ccccc3)C(=O)C21 (centres undefined)
11 µM: HCT-15
inactive: A549 17.7 µM | ACHN 10.8 µM | EKVX 54 µM | HT-29 10.8 µM | KM12 4.79 µM | MOLT-4 2.54 µM | Malme-3M 41.9 µM | NCI-H226 12.2 µM | RPMI-8226 3.83 µM | SF-295 15.4 µM | SK-MEL-28 2.29 µM | SK-OV-3 18.2 µM | SNB-75 13.5 µM | UACC-257 15.8 µM

O=C1CC(c2c(-c3ccccc3)[nH]c3ccccc23)C(=O)N1 (centres undefined)
> 100 µM: HCT-15
inactive: A549 > 100 µM | ACHN > 100 µM | EKVX > 100 µM | HT-29 > 100 µM | KM12 > 100 µM | MOLT-4 > 100 µM | Malme-3M > 100 µM | NCI-H226 > 100 µM | RPMI-8226 > 100 µM | SF-295 > 100 µM | SK-MEL-28 > 100 µM | SK-OV-3 > 100 µM | SNB-75 35.4 µM | UACC-257 > 100 µM

CC1NS(=O)(=O)N(C)C1=O (centres undefined)
inactive: A549 > 100 µM | ACHN > 100 µM | KM12 > 100 µM | MOLT-4 > 100 µM | Malme-3M > 100 µM | NCI-H226 > 100 µM | NCI-H522 > 100 µM | RPMI-8226 > 100 µM | SF-268 > 100 µM | SF-295 > 100 µM | SK-MEL-28 > 100 µM | SK-OV-3 > 100 µM | SNB-75 81.8 µM | UACC-257 > 100 µM
> 100 µM: HCT-15

COC(=O)C(=C\Sc1ccccc1)/C=C/C(=O)OC(C)(C)C
inactive: A549 18.3 µM | ACHN 7.23 µM | EKVX 10.6 µM | HT-29 16.5 µM | KM12 11.4 µM | MOLT-4 2.84 µM | Malme-3M 15.9 µM | NCI-H226 15.6 µM | NCI-H522 5.07 µM | RPMI-8226 3.06 µM | SF-268 14.9 µM | SF-295 17.4 µM | SK-MEL-28 13.4 µM | SK-OV-3 24 µM | SNB-19 4.08 µM | SNB-75 14 µM | UACC-257 13.5 µM
6.67 µM: HCT-15

CCOC(=O)C=C1CCC2(CC1)OCCO2
inactive: A549 > 100 µM | ACHN > 100 µM | HT-29 > 100 µM | KM12 > 100 µM | MOLT-4 > 100 µM | Malme-3M > 100 µM | NCI-H226 > 100 µM | NCI-H522 > 100 µM | RPMI-8226 > 100 µM | SF-268 > 100 µM | SF-295 > 100 µM | SK-MEL-28 > 100 µM | SK-OV-3 > 100 µM | SNB-19 > 100 µM | SNB-75 > 100 µM | UACC-257 > 100 µM
> 100 µM: HCT-15

COc1ccc2nc3c(C(=O)NCCN(C)C)cccc3nc2c1
3.93 µM: HCT-15
inactive: A549 4.28 µM | ACHN 3.94 µM | EKVX 3.86 µM | HT-29 4.17 µM | KM12 5.98 µM | MOLT-4 3.63 µM | NCI-H226 6.85 µM | SF-268 7.36 µM | SF-295 6.41 µM | SK-MEL-28 8.3 µM | SK-OV-3 9.04 µM | SNB-19 6.21 µM | SNB-75 7.35 µM | UACC-257 3.91 µM

N#Cc1c2nc3ccccc3nc2n2ccccc12
> 100 µM: HCT-15
inactive: A549 > 100 µM | ACHN > 100 µM | EKVX > 100 µM | KM12 > 100 µM | MOLT-4 > 100 µM | Malme-3M > 100 µM | NCI-H522 > 100 µM | RPMI-8226 > 100 µM | SF-268 > 100 µM | SK-MEL-28 > 100 µM | SNB-19 > 100 µM | SNB-75 > 100 µM | UACC-257 > 100 µM
active: SK-OV-3 0.63 µM

CC(=O)OC1C/C(C)=C/[C@H](O)CC(C)/C=C/[C@@]2(C)CCC(C(C)(C)O)C12 (some centres undefined)
inactive: A549 > 100 µM | ACHN > 100 µM | EKVX > 100 µM | HT-29 > 100 µM | KM12 > 100 µM | MOLT-4 > 100 µM | Malme-3M > 100 µM | NCI-H226 > 100 µM | RPMI-8226 > 100 µM | SF-268 > 100 µM | SF-295 > 100 µM | SK-MEL-28 > 100 µM | SK-OV-3 > 100 µM | SNB-19 > 100 µM | SNB-75 > 100 µM | UACC-257 > 100 µM
> 100 µM: HCT-15

C#CCOCn1cnc2c(Sc3c([N+](=O)[O-])ncn3C)ncnc21
inactive: A549 > 100 µM | ACHN > 100 µM | EKVX > 100 µM | HT-29 > 100 µM | KM12 > 100 µM | Malme-3M > 100 µM | NCI-H226 > 100 µM | NCI-H522 48.3 µM | RPMI-8226 > 100 µM | SF-268 > 100 µM | SF-295 > 100 µM | SK-MEL-28 > 100 µM | SK-OV-3 > 100 µM | SNB-19 > 100 µM | SNB-75 22.8 µM | UACC-257 > 100 µM
> 100 µM: HCT-15

CC12OC3CC(O1)C1(C=O)C4CCC5(C)C(c6ccc(=O)oc6)CCC5(O)C4CCC1(C3)O2 (centres undefined)
0.212 µM: HCT-15
active: A549 0.0611 µM | ACHN 0.0476 µM | HT-29 0.385 µM | KM12 0.379 µM | MOLT-4 0.0344 µM | Malme-3M 0.198 µM | NCI-H226 0.417 µM | NCI-H522 0.0479 µM | RPMI-8226 0.0313 µM | SF-268 0.103 µM | SF-295 0.0986 µM | SK-MEL-28 0.491 µM | SK-OV-3 0.213 µM | SNB-19 0.573 µM | SNB-75 0.252 µM | UACC-257 0.234 µM

Cc1ccc(O)c(C(=O)CCCC(=O)c2cc(C)ccc2O)c1
inactive: ACHN > 100 µM | EKVX > 100 µM | HT-29 > 100 µM | KM12 > 100 µM | MOLT-4 > 100 µM | Malme-3M > 100 µM | NCI-H226 > 100 µM | NCI-H522 63.8 µM | RPMI-8226 > 100 µM | SF-268 > 100 µM | SF-295 > 100 µM | SK-MEL-28 > 100 µM | SK-OV-3 > 100 µM | SNB-19 46.1 µM | SNB-75 81.5 µM | UACC-257 > 100 µM
45.8 µM: HCT-15

O=C1c2cccc(O)c2C(=O)c2cccc(O)c21 [ANTHRARUFIN]
inactive: A549 > 100 µM | ACHN > 100 µM | EKVX > 100 µM | HT-29 > 100 µM | KM12 > 100 µM | MOLT-4 > 100 µM | NCI-H226 > 100 µM | NCI-H522 > 100 µM | RPMI-8226 > 100 µM | SF-268 > 100 µM | SF-295 > 100 µM | SNB-19 > 100 µM | SNB-75 > 100 µM | UACC-257 > 100 µM
> 100 µM: HCT-15
